Patent US20240067932A1, “METHODS AND COMPOSITIONS FOR GENERATING HEMOGENIC ENDOTHELIAL CELLS FROM PLURIPOTENT STEM CELLS” (Trailhead Biosystems Inc., priority 2022, published 2024)

Key:
Format in all cases: cell-based, human
[1] = system: early mesoderm progenitors; experiment: 8-factor HD-DoE experiments optimized for maximum GATA2 expression (qPCR, partial least squares models)
[2] = system: early mesoderm progenitors; experiment: Factor criticality / dynamic profile analysis of gene expression on removal of a finalized effector; design: expression level of GATA2 / expression level of TAL1 / expression level of CD44 / expression level of KDR / expression level of CD34 / expression level of CD31: unit not given here
[3] = system: early mesoderm progenitors; experiment: 8-factor HD-DoE experiments optimized for maximum GATA2 expression (qPCR, partial least squares models); settings: first model, FIG. 2; factors Forskolin, VEGF, FGF2, Albumax, SUN1162, Hydrocortisone, SB341542, Resveratrol; 3 days after stage 1
Excerpt: The early mesoderm progenitors were used for further differentiation along the endothelial lineage using a High-Dimensional Design of Experiments (HD-DoE) approach to simultaneously test multiple process inputs (e.g., small molecule agonists or antagonists) on output responses, such as gene expression. Based on predicted conditions that maximize expression of hemogenic endothelial enriched genes such as CD31, CD34, CD143, CD309, GATA2, Fill and RUNX1, vWF, a complex recipe was developed for generating differentiated hemogenic endothelial cells from the early mesoderm progenitors, composed of 8 agents as shown below in Table 1:
First, undifferentiated iPSC were grown for 48 h in CDM2 media containing 6 uM CHIR99021 (referred to herein as stage 1). Then stage 2 media was engineered. The basis of this was an 8-factor HD-DoE experiment with focus on differentiation of cells toward the hemogenic endothelial lineage for an additional 3 days after termination of stage 1 treatment. To test the effectors, 48 different combinations of effectors generated using Design-of-Experiments compression through D-optimality were robotically prepared. The effector combinations were prepared in a basal media and were subsequently added to the cells, which were then allowed to differentiate. Three days later, RNA extraction was performed, and gene expression was obtained using quantitative PCR analysis. The data were normalized and modeled using partial least squares regression analysis to the effector design, resulting in the generation of gene-specific models, which after model tuning for maximal Q2 predictive power, provided explanation of the effectors ability to control the expression of individual genes, combinatorically, and individually. Solutions within the tested space could then be explored to address desirability. For stage 2, conditions were created inducing the expression of GATA2, a transcription factor identified as a master regulator of hematopoiesis. GATA2 promotes the generation of HECs and facilitates endothelial-to-hematopoietic transition (EHT). GATA2 also suppresses cardiac differentiation at the mesoderm stage, directing cells to a hematopoietic fate. Optimizing for maximal expression of GATA2 led to a robust solution. […] In this model, high levels of KDR, important receptor for VEGF signaling, were observed. […] This model was derived from initial testing of eight factors including: Forskolin, VEGF, FGF2, Albumax, SUN1162, Hydrocortisone, SB341542, and Resveratrol. […] Factors with low contribution were excluded.

[4] = second model, FIG. 3, factors CHIR, VEGF, FGF2, TTNBP, AGN194310, Y27632, Thymosin-β4, heparin
[5] = model FIG. 7 (VEGF, Forskolin, FGF2), factor present
[6] = model FIG. 7, named factor removed, others kept
[7] = model FIG. 10, named factor removed
[8] = fourth model, FIG. 5, factors VEGF, FGF2, Sphingosine 1 phosphate, V11298, Pyrintegrin, Erythropoietin, L-ascorbic acid, XAV939
[9] = model FIG. 9, named factor removed
[10] = fifth model, FIG. 6, factors VPA, SCF, BMP4, EFG, FLT3L, Arginine, Retinoic Acid, VEGF
[11] = model FIG. 11, named factor removed
[12] = model FIG. 8, named factor removed, others kept
[13] = model FIG. 9A, before addition of SANT1
[14] = model FIG. 9A, with addition of SANT1

Compound: heparin
- factor contribution (maximum expression of GATA2) [1, 4]: relatively low factor contribution

Compound: C/C(=C\c1ccc(C(=O)O)cc1)c1ccc2c(c1)C(C)(C)CCC2(C)C [TTNBP]
- factor contribution (maximum expression of GATA2) [1, 4]: relatively low factor contribution

Compound: C=C[C@@]1(C)CC(=O)[C@]2(O)[C@@]3(C)[C@@H](O)CCC(C)(C)[C@@H]3[C@H](O)[C@H](OC(C)=O)[C@@]2(C)O1 [Forskolin, reference compound]
- expression level of GATA2 [2, 5]: 583
- expression level of CD34 ([2]; model FIG. 7, factor present): 2350
- expression level of CD44 ([2]; model FIG. 7, factor present): 578
- expression level of FLI1 (Fill [sic]) ([2]; model FIG. 7, factor present): 3971
- expression level of KDR ([2]; model FIG. 7, factor present): 33751
- expression level of TAL1 ([2]; model FIG. 7, factor present): 370
- expression level of CD34 [2, 6]: 2240
- expression level of CD44 [2, 6]: 540
- expression level of FLI1 (Fill [sic]) [2, 6]: 3740
- expression level of GATA2 [2, 6]: 373
- expression level of KDR [2, 6]: 32839
- expression level of TAL1 [2, 6]: 318
- factor contribution (maximum expression of GATA2) [3]: 27

Compound: Oc1nc(-c2ccc(C(F)(F)F)cc2)nc2c1CSCC2 [XAV939, reference compound]
- expression level of GATA2 ([2]; model FIG. 10 (XAV939, VEGF, FGF2, L-ascorbic acid kept), factor present): 992
- expression level of CD31 ([2]; model FIG. 10, factor present): 6619
- expression level of CD34 ([2]; model FIG. 10, factor present): 7050
- expression level of CD44 ([2]; model FIG. 10, factor present): 838
- expression level of FLI1 (Fill [sic]) ([2]; model FIG. 10, factor present): 13094
- expression level of KDR ([2]; model FIG. 10, factor present): 36067
- expression level of TAL1 ([2]; model FIG. 10, factor present): 1265
- expression level of CD31 [2, 7]: 2181
- expression level of CD34 [2, 7]: 5740
- expression level of CD44 [2, 7]: 799
- expression level of FLI1 (Fill [sic]) [2, 7]: 7237
- expression level of GATA2 [2, 7]: 560
- expression level of KDR [2, 7]: 31179
- expression level of TAL1 [2, 7]: 982
- factor contribution (maximum expression of GATA2) [1, 8]: 16

Compound: VEGF
- expression level of GATA2 [2, 5]: 583
- expression level of CD31 ([2]; model FIG. 7, factor present): 879
- expression level of CD34 ([2]; model FIG. 7, factor present): 2350
- expression level of CD44 ([2]; model FIG. 7, factor present): 578
- expression level of FLI1 (Fill [sic]) ([2]; model FIG. 7, factor present): 3971
- expression level of KDR ([2]; model FIG. 7, factor present): 33751
- expression level of TAL1 ([2]; model FIG. 7, factor present): 370
- expression level of CD31 [2, 6]: 2
- expression level of CD34 [2, 6]: 150
- expression level of CD44 [2, 6]: 349
- expression level of FLI1 (Fill [sic]) [2, 6]: 241
- expression level of GATA2 [2, 6]: 236
- expression level of KDR [2, 6]: 16856
- expression level of TAL1 [2, 6]: 18
- effect on expression of hemogenic endothelial genes analyzed (in words) ([2]; model FIG. 8): critical for increasing the expression of all hemogenic endothelial genes analyzed
- expression level of CD31 ([2]; model FIG. 9, factor present): 869
- expression level of CD34 ([2]; model FIG. 9, factor present): 2341
- expression level of FLI1 (Fill [sic]) ([2]; model FIG. 9, factor present): 2292
- expression level of KDR ([2]; model FIG. 9, factor present): 7518
- expression level of CD31 [2, 9]: 262
- expression level of CD34 [2, 9]: 868
- expression level of FLI1 (Fill [sic]) [2, 9]: 974
- expression level of KDR [2, 9]: 6209
- effect on expression of hemogenic endothelial genes analyzed (in words) ([2]; model FIG. 10): critical for expression of all hemogenic endothelial genes analyzed
- effect on expression of hemogenic endothelial genes analyzed (in words) ([2]; model FIG. 11): critical for expression of all hemogenic endothelial genes analyzed
- factor contribution (maximum expression of GATA2) [3]: 46
- effect towards GATA2 induction in 4 out of 5 models ([1]; across models): strong positive effect towards GATA2 induction
- factor contribution (maximum expression of GATA2) [1, 10]: 22
- factor contribution (maximum expression of GATA2) [1, 8]: 22
- factor contribution (maximum expression of GATA2) [1, 4]: 25

Compound: CC1=C(/C=C/C(C)=C/C=C/C(C)=C/C(=O)O)C(C)(C)CCC1 [Retinoic Acid, Retinoic acid, reference compound]
- expression level of GATA2 ([2]; model FIG. 11 (Retinoic Acid, BMP4, VEGF), factor present): 519
- expression level of CD31 ([2]; model FIG. 11, factor present): 768
- expression level of CD34 ([2]; model FIG. 11, factor present): 3971
- expression level of FLI1 (Fill [sic]) ([2]; model FIG. 11, factor present): 3250
- expression level of TAL1 ([2]; model FIG. 11, factor present): 490
- expression level of CD31 [2, 11]: 486
- expression level of CD34 [2, 11]: 2902
- expression level of FLI1 (Fill [sic]) [2, 11]: 2936
- expression level of GATA2 [2, 11]: 281
- expression level of TAL1 [2, 11]: 235
- factor contribution (maximum expression of GATA2) [1, 10]: 22

Compound: C[C@@H](N)[C@H]1CC[C@H](C(=O)Nc2ccncc2)CC1 [Y27632]
- factor contribution (maximum expression of GATA2) [1, 4]: relatively low factor contribution

Compound: O=C1O[C@H]([C@@H](O)CO)C(O)=C1O [L-ascorbic acid, reference compound]
- effect on expression of hemogenic endothelial genes analyzed (in words) ([2]; model FIG. 10): increased expression of crucial genes
- factor contribution (maximum expression of GATA2) [1, 8]: 5

Compound: CCc1ccc(C2=CC(C)(C)Sc3ccc(C#Cc4ccc(C(=O)O)cc4)cc32)cc1 [AGN194310]
- factor contribution (maximum expression of GATA2) [1, 4]: relatively low factor contribution

Compound: Cc1c[nH]c(-c2cnc(NCCNc3ccc(C#N)cn3)nc2-c2ccc(Cl)cc2Cl)n1 [CHIR]
- factor contribution (maximum expression of GATA2) [1, 4]: relatively low factor contribution

Compound: Thymosin-β4: Actin binding protein (SDKPDMAEIEKFDKSKLKKTETQEKNPLPSKETIEQEKQAGES; UniProt P62328 2-44, looked up)
- expression level of GATA2 ([2]; model FIG. 8 (VEGF, FGF2, Thymosin-β4), factor present): 633
- expression level of CD44 ([2]; model FIG. 8, factor present): 748
- expression level of KDR ([2]; model FIG. 8, factor present): 40660
- expression level of CD44 [2, 12]: 626
- expression level of GATA2 [2, 12]: 437
- expression level of KDR [2, 12]: 37788
- factor contribution (maximum expression of GATA2) [1, 4]: 16

Compound: Cc1nn(-c2ccccc2)c(C)c1/C=N/N1CCN(Cc2ccccc2)CC1 [SANT1, reference compound]
- effect on expression of genes of interest (in words) ([2]; model FIG. 9): decreased levels of all genes of interest
- expression level of CD34 [2, 13]: 3159
- expression level of KDR [2, 13]: 13469
- expression level of TAL1 [2, 13]: 1010
- expression level of CD34 [2, 14]: 1995
- expression level of KDR [2, 14]: 12504
- expression level of TAL1 [2, 14]: 498

Compound: c1ccc2c(Oc3nc(Nc4ccc(N5CCOCC5)cc4)c4ncn(C5CCCCC5)c4n3)cccc2c1 [Purmorphamine, reference compound]
- expression level of GATA2 ([2]; model FIG. 9 (Purmorphamine, VEGF, B-27 kept), factor present): 275
- expression level of CD34 ([2]; model FIG. 9, factor present): 3230
- expression level of FLI1 (Fill [sic]) ([2]; model FIG. 9, factor present): 3571
- expression level of KDR ([2]; model FIG. 9, factor present): 13612
- expression level of TAL1 ([2]; model FIG. 9, factor present): 1008
- expression level of CD34 [2, 9]: 2369
- expression level of FLI1 (Fill [sic]) [2, 9]: 2324
- expression level of GATA2 [2, 9]: 105
- expression level of KDR [2, 9]: 7614
- expression level of TAL1 [2, 9]: 428
- factor contribution (maximum expression of GATA2) ([1]; third model, FIG. 4, factors YHHU, DBZ, Purmorphamine, SANT1, LPA, Yodal, VEGF, B-27): 20
